Experimental data published in patent US11813306B2, “Cyclic tetramer compounds as proprotein convertase subtilisin/kexin type 9 (PCSK9) inhibitors for the treatment of metabolic disorders” (NOVARTIS AG, priority 2018, dated 2023).

Target: human PCSK9 (Homo sapiens, UniProt Q8NBP7)
Assay: PCSK9 ligand binding assay (TR-FRET): interference with binding of human PCSK9 to human LDLR
Details: for IC50: Human PCSK9 Alexa Fluor 647 / Human LDLR extracellular domain-Europium Kryptate; for Max % inhibition: efficacy (Amax), 100% = 1 uM unlabeled human PCSK9, 0% = DMSO
Description: Example 10: PCSK9 Ligand Binding Assay
The PCSK9 binding of the compounds of the disclosure were measured using a time resolved fluorescence resonance energy transfer (TR-FRET) assay. This time resolved fluorescence resonance energy transfer (TR-FRET) assay measures the ability of a compound of the present disclosure to interfere with the binding of human PCSK9 to human LDLR, providing measures of both potency (IC50) and efficacy (Amax).
Human PCSK9 Alexa Fluor 647
Human LDLR extracellular domain-Europium Kryptate
Proxi plate-low volume assay plate (PerkinElmer #6008280)
Greiner V-bottom (Greiner BioOne #781280)
Assay Buffer • 20 mM HEPES, pH 7.5 • 150 mM NaCl • 1 mM CaCl2 • 0.01% v/v Tween20 • 0.01% w/v BSA
A master compound plate was prepared in a Greiner V bottom plate by diluting compounds of the disclosure in dimethylsulfoxide to the correct concentration for the desired top concentration based on the desired final concentration: for a 30 uM final concentration the master plate concentration is 1.5 mM (68 uL DMSO+12 uL 10 mM of a compound of the disclosure), for a 10 uM final concentration the master plate concentration is 0.5 mM (76 uL DMSO+4 uL 10 mM of a compound of the disclosure), for a 3 uM final concentration the master plate concentration is 150 uM (69 uL DMSO+1 uL 10 mM of a compound of the disclosure). These solutions were pipetted into columns 1 and 11 of the compound plate. Threefold serial dilutions were generated in columns 2-10 and 12-20 of the compound plate by transferring 10 uL into 20 uL of DMSO. Columns 21 and 22 of the compound plate were negative controls containing DMSO alone.
An intermediate plate was generated in a Greiner V bottom plate by transferring 8 uL from each well of the master plate into a corresponding well containing 92 uL of assay buffer and mixing thoroughly.
A Proxi plate-low volume assay plate was used for the assay. To all wells of the plate was added 10 uL of 16 nM Human PCSK9 Alexa Fluor 647, followed by 5 uL from the intermediate plate. For the positive control wells in columns 23 and 24 of the plate, 5 uL of unlabeled human PCSK9 was added at 4 uM in assay buffer containing 8% DMSO. Following a 30 minute incubation, 5 uL of 4 nM Human LDLR extracellular domain-Europium Kryptate was added and the mixture was incubated for an additional 2 hours.
The TR-FRET signal was measured on an EnVision or PheraStar instrument with a 60 ms delay, 330 nm excitation and 665 nm emission (FRET), and 330 nm excitation and 615 nm (Europium). The FRET ratio (FRET/Europium) was used for calculations.
No inhibition (0%) was observed from the wells containing DMSO (Control) in columns 21 and 22 of the compound plate. Full inhibition (100%) was observed from the wells containing 1 uM human PCSK9 (Control) in columns 23 and 24 of the plate. Data is expressed as percent inhibition: (value—0%)/(100%-0%).

Sequence of human PCSK9 (Q8NBP7 153-692): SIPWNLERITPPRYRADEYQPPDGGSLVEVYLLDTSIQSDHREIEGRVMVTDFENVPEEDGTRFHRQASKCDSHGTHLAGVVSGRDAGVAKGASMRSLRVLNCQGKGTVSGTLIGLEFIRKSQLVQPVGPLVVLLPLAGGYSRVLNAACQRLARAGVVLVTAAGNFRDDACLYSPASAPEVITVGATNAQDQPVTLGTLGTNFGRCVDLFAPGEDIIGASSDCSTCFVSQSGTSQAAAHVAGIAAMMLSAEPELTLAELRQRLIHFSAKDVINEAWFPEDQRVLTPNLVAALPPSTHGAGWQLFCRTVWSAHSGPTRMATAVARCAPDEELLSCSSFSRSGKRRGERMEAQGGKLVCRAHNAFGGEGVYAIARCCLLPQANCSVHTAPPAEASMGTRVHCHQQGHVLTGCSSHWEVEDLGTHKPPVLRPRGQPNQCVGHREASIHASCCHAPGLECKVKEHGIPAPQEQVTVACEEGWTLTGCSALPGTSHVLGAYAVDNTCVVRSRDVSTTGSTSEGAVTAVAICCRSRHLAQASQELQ
Sequence of human PCSK9 (Q8NBP7 31-152 partner limits assumed): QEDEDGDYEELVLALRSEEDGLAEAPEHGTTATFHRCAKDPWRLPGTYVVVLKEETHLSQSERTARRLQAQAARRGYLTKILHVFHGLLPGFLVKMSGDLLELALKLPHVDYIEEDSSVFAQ

Row | Compound | IC50 [nM] | Max % inhibition [%]
1 | CNCc1ncc(-c2ccc(Oc3cc(Cl)cc(F)c3CN3C(=O)C[C@@H](CC(F)(F)F)C(=O)N4CCC[C@@](Cc5ccc(Cl)cc5)(C4)N(C)C(=O)[C@H](COC)NC(=O)[C@@H]3C)cc2)n1C [Compound 172, (3S, 7S, 10S, 13R)-6-(4-chloro-2-fluoro-6-(4-(1-methyl-2-((methylamino)methyl)-1H-imidazol-5-yl)phenoxy)benzyl)-13-(4-chlorobenzyl)-10-(methoxymethyl)-7,12-dimethyl-3-(2,2,2-trifluoroethyl)-1,6,9,12-tetraazabicyclo[11.3.1]heptadecane-2,5,8,11-tetraone] | 0.57 | 104.8
2 | COC[C@@H]1NC(=O)[C@H](C)N(Cc2ccc(Cl)cc2Oc2ccc(-c3cnc(CN(C)C)n3C)cc2)C(=O)C[C@@H](Cc2cccc(=O)n2C)C(=O)N2CCC[C@@](Cc3ccc(Cl)cc3)(C2)NC1=O [Compound 44] | 1.18 | 105.2
3 | C[C@H]1C(=O)N[C@@H](CO)C(=O)N[C@@]2(Cc3ccc(Cl)cc3)CCCN(C2)C(=O)[C@H](CC(F)(F)F)CC(=O)N1Cc1ccc(Cl)cc1Oc1ccc(-c2cnc(CN(C)C)n2C)cc1 [Compound 83, (3S,7S,10S,13R)-6-(4-Chloro-2-(4-(2-((dimethylamino)methyl)-1-methyl-1H-imidazol-5-yl)phenoxy)benzyl)-13-(4-chlorobenzyl)-10-(hydroxymethyl)-7-methyl-3-(2,2,2-trifluoroethyl)-1,6,9,12-tetraazabicyclo[11.3.1]heptadecane-2,5,8,11-tetraone] | 0.347 | 112.4
4 | COC[C@@H]1NC(=O)[C@H](C)N(Cc2c(F)cc(Cl)cc2Oc2ccc(-c3cnc(CNC(C)(C)C)n3C)cc2)C(=O)C[C@@H](CC(F)(F)F)C(=O)N2CCC[C@@](Cc3ccc(Cl)cc3)(C2)NC1=O [Compound 138, (3S, 7S, 10S, 13R)-6-(2-(4-(2-((tert-butylamino)methyl)-1-methyl-1H-imidazol-5-yl)phenoxy)-4-chloro-6-fluorobenzyl)-13-(4-chlorobenzyl)-10-(methoxymethyl)-7-methyl-3-(2,2,2-trifluoroethyl)-1,6,9,12-tetraazabicyclo[11.3.1]heptadecane-2,5,8,11-tetraone] | 0.18 | 114.0
5 | COC[C@@H]1NC(=O)[C@H](C)N(Cc2ccc(Cl)cc2Oc2cc(F)c(-c3cnc(CN4CCCC4)n3C)c(F)c2)C(=O)C[C@@H](Cc2ccccc2)C(=O)N(C)C[C@@H](Cc2ccc(Cl)cc2)N(C)C1=O.Cl [Compound 117, (2S, 5S, 8R, 12R)-12-benzyl-1-(4-chloro-2-(3,5-difluoro-4-(1-methyl-2-(pyrrolidin-1-ylmethyl)-1H-imidazol-5-yl)phenoxy)benzyl)-8-(4-chlorobenzyl)-5-(methoxymethyl)-2,7,10-trimethyl-1,4,7,10-tetraazacyclotetradecane-3,6,11,14-tetraone] | 35.1 | 98.9
6 | C[C@H]1C(=O)N[C@@H](CO)C(=O)N[C@@]2(Cc3ccc(Cl)cc3)CCCN(C2)C(=O)[C@H](CC(F)(F)F)CC(=O)N1Cc1c(F)cc(Cl)cc1Oc1ccc(-c2cnc(CN3CCCC3)n2C)cc1 [Compound 15, (3S, 7S, 10S, 13R)-6-(4-chloro-2-fluoro-6-(4-(1-methyl-2-(pyrrolidin-1-ylmethyl)-1H-imidazol-5-yl)phenoxy)benzyl)-13-(4-chlorobenzyl)-10-(hydroxymethyl)-7-methyl-3-(2,2,2-trifluoroethyl)-1,6,9,12-tetraazabicyclo[11.3.1]heptadecane-2,5,8,11-tetraone] | 0.342 | 119.0
7 | COC[C@@H]1NC(=O)[C@H](C)N(Cc2ccc(Cl)cc2Oc2ccc(-c3cnc(CN(C)C)n3C)cc2)C(=O)C[C@@H](Cc2cccnc2)C(=O)N2CCC[C@@](Cc3ccc(Cl)cc3)(C2)NC1=O.Cl [Compound 23, (3R, 7S, 10S, 13R)-6-(4-chloro-2-(4-(2-((dimethylamino)methyl)-1-methyl-1H-imidazol-5-yl)phenoxy)benzyl)-13-(4-chlorobenzyl)-10-(methoxymethyl)-7-methyl-3-(pyridin-3-ylmethyl)-1,6,9,12-tetraazabicyclo[11.3.1]heptadecane-2,5,8,11-tetraone] | 0.463 | 109.3
8 | C[C@H]1C(=O)N[C@@H](CO)C(=O)N(C)[C@@]2(Cc3ccc(Cl)cc3)CCCN(C2)C(=O)[C@H](Cc2ccccc2)CC(=O)N1Cc1c(F)cc(Cl)cc1Oc1ccc(-c2cnc(CN(C)C)n2C)cc1 [Compound 79, (3R, 7S, 10S, 13R)-3-benzyl-6-(4-chloro-2-(4-(2-((dimethylamino)methyl)-1-methyl-1H-imidazol-5-yl)phenoxy)-6-fluorobenzyl)-13-(4-chlorobenzyl)-10-(hydroxymethyl)-7,12-dimethyl-1,6,9,12-tetraazabicyclo[11.3.1]heptadecane-2,5,8,11-tetraone] | 0.819 | 108.3
9 | C/C=C/C[C@@H]1CC(=O)N(Cc2ccc(Cl)cc2Oc2ccc(-c3cnc(CN(C)C)n3C)cc2)[C@@H](C)C(=O)N[C@@H](CO)C(=O)N[C@@]2(Cc3ccc(Cl)cc3)CCCN(C2)C1=O [Compound 40, (3R,7S,10S,13R)-3-((E)-but-2-en-1-yl)-6-(4-Chloro-2-(4-(2-((dimethylamino)methyl)-1-methyl-1H-imidazol-5-yl)phenoxy)benzyl)-13-(4-chlorobenzyl)-10-(hydroxymethyl)-7-methyl-1,6,9,12-tetraazabicyclo[11.3.1]heptadecane-2,5,8,11-tetraone] | 0.6 | 107.8
10 | CNCc1ncc(-c2ccc(Oc3cc(Cl)cc(F)c3CN3C(=O)C[C@@H](Cc4cccc(C)n4)C(=O)N4CCC[C@@](Cc5ccc(Cl)cc5)(C4)N(C)C(=O)[C@H](COC)NC(=O)[C@@H]3C)cc2)n1C [Compound 167, (3R,7S,10S,13R)-6-(4-chloro-2-fluoro-6-(4-(1-methyl-2-((methylamino)methyl)-1H-imidazol-5-yl)phenoxy)benzyl)-13-(4-chlorobenzyl)-10-(methoxymethyl)-7,12-dimethyl-3-((6-methylpyridin-2-yl)methyl)-1,6,9,12-tetraazabicyclo[11.3.1]heptadecane-2,5,8,11-tetraone] | 0.9 | 108.6
11 | C[C@H]1C(=O)N[C@@H](CO)C(=O)N[C@@]2(Cc3ccc(Cl)cc3)CCCN(C2)C(=O)[C@H](Cc2ccc(C(F)(F)F)cc2)CC(=O)N1Cc1ccc(Cl)cc1Oc1ccc(-c2cnc(CN(C)C)n2C)cc1 [Compound 62, (3R, 7S, 10S, 13R)-6-(4-chloro-2-(4-(2-((dimethylamino)methyl)-1-methyl-1H-imidazol-5-yl)phenoxy)benzyl)-13-(4-chlorobenzyl)-10-(hydroxymethyl)-7-methyl-3-(4-(trifluoromethyl)benzyl)-1,6,9,12-tetraazabicyclo[11.3.1]heptadecane-2,5,8,11-tetraone] | 0.963 | 110.7
12 | C[C@H]1C(=O)N[C@@H](CO)C(=O)N(C)[C@H](Cc2ccc(Cl)cc2)CNC(=O)[C@H](Cc2ccccc2)CC(=O)N1Cc1ccc(Cl)cc1Oc1ccc(-c2cnc(CN3CCCC3)n2C)cc1.Cl [Compound 89, (2S, 5S, 8R, 12R)-12-benzyl-1-(4-chloro-2-(4-(1-methyl-2-(pyrrolidin-1-ylmethyl)-1H-imidazol-5-yl)phenoxy)benzyl)-8-(4-chlorobenzyl)-5-(hydroxymethyl)-2,7-dimethyl-1,4,7,10-tetraazacyclotetradecane-3,6,11,14-tetraone] | 1.51 | 104.5
